Experimental data: patent US20260207623A1, “USE OF ESTETROL IN HEPATICALLY IMPAIRED PATIENTS” (ESTETRA SRL, priority 2022, published 2026)

Tests used:
post-menopausal women [1] = assay: Example 3: menopause-specific Quality of Life (MENQOL) questionnaire; type: in vivo, human; details: compared to placebo treatment
post-menopausal women [2] = assay: Example 2 dose-finding study: weekly frequency of moderate to severe VMS (absolute and relative change, responders); type: in vivo, human; details: for Weekly frequency of moderate to severe VMS, relative change (% from baseline), Mean: section B analysis
Excerpt: Enrolment was approximately 18 months. Individual subject participation was up to 27 weeks: up to 6 weeks pre-screening and washout, up to 4 weeks screening and run-in period, up to 91 days (13 weeks) of E4 monohydrate or placebo treatment followed by 2 weeks (14 days) of progestin therapy and a Follow up visit 1 week after completion of progestin therapy in non-hysterectomied subjects only.
To define the minimum effective dose (MED) of the oral dose of E4 by evaluating changes in frequency and in severity of moderate to severe vasomotor symptoms (VMS).
This was a prospective, multicentre, randomised, placebo-controlled, double-blinded, dose-finding study.
Eligible subjects were hysterectomied and non-hysterectomied post-menopausal women aged 40 to 65 years, inclusive, presenting at least 7 moderate to severe hot flushes/day or at least 50 moderate to severe hot flushes/week.
All treatments (Estetrol, hereinafter E4 as monohydrate, [2.5 mg, 5 mg, 10 mg, 15 mg] capsule) were administered once daily (QD) per os for at least 12 consecutive weeks until the last biological assessments (Day 91 maximum) had been performed.
In order to analyse the data recorded in this study, treatment groups have been compared using an ANCOVA (analysis of covariance) with respect to the change in weekly frequency of moderate to severe VMS from baseline to weeks 4 and 12. The ANCOVA model includes treatment (“trt1”) and study centre (“SITEPOOL”) as a fixed effect and baseline (“base”) as a covariate.
VMS frequency was also studied by grouping patients according to their degree of response.

## C[C@]12CC[C@@H]3c4ccc(O)cc4CC[C@H]3[C@@H]1[C@@H](O)[C@@H](O)[C@@H]2O [E4 monohydrate, estetrol monohydrate]
post-menopausal women [1]
  total MENQOL scores: significantly improved
post-menopausal women [2]; 2.5 mg QD, week 0
  Mean change from baseline in weekly frequency of moderate to severe VMS: 0.00
  Mean relative change (% from baseline) in weekly frequency of moderate to severe VMS: 0%
post-menopausal women [2]; 2.5 mg QD, week 1
  Mean relative change (% from baseline) in weekly frequency of moderate to severe VMS: −23%
post-menopausal women [2]; 2.5 mg QD, week 2
  Mean relative change (% from baseline) in weekly frequency of moderate to severe VMS: −34%
post-menopausal women [2]; 2.5 mg QD, week 3
  Mean relative change (% from baseline) in weekly frequency of moderate to severe VMS: −44%
post-menopausal women [2]; 2.5 mg QD, week 4
  Mean relative change (% from baseline) in weekly frequency of moderate to severe VMS: −49%
post-menopausal women [2]; 2.5 mg QD, week 5
  Mean relative change (% from baseline) in weekly frequency of moderate to severe VMS: −50%
post-menopausal women [2]; 2.5 mg QD, week 6
  Mean relative change (% from baseline) in weekly frequency of moderate to severe VMS: −54%
post-menopausal women [2]; 2.5 mg QD, week 7
  Mean relative change (% from baseline) in weekly frequency of moderate to severe VMS: −57%
post-menopausal women [2]; 2.5 mg QD, week 8
  Mean relative change (% from baseline) in weekly frequency of moderate to severe VMS: −58%
post-menopausal women [2]; 2.5 mg QD, week 9
  Mean relative change (% from baseline) in weekly frequency of moderate to severe VMS: −61%
post-menopausal women [2]; 2.5 mg QD, week 10
  Mean relative change (% from baseline) in weekly frequency of moderate to severe VMS: −61%
post-menopausal women [2]; 2.5 mg QD, week 11
  Mean relative change (% from baseline) in weekly frequency of moderate to severe VMS: −60%
post-menopausal women [2]; 2.5 mg QD, week 12
  Mean relative change (% from baseline) in weekly frequency of moderate to severe VMS: −61%
post-menopausal women [2]; 5 mg QD, week 0
  Mean change from baseline in weekly frequency of moderate to severe VMS: 0.00
  Mean relative change (% from baseline) in weekly frequency of moderate to severe VMS: 0%
post-menopausal women [2]; 5 mg QD, week 1
  Mean relative change (% from baseline) in weekly frequency of moderate to severe VMS: −23%
post-menopausal women [2]; 5 mg QD, week 2
  Mean relative change (% from baseline) in weekly frequency of moderate to severe VMS: −33%
post-menopausal women [2]; 5 mg QD, week 3
  Mean relative change (% from baseline) in weekly frequency of moderate to severe VMS: −38%
post-menopausal women [2]; 5 mg QD, week 4
  Mean relative change (% from baseline) in weekly frequency of moderate to severe VMS: −43%
post-menopausal women [2]; 5 mg QD, week 5
  Mean relative change (% from baseline) in weekly frequency of moderate to severe VMS: −47%
post-menopausal women [2]; 5 mg QD, week 6
  Mean relative change (% from baseline) in weekly frequency of moderate to severe VMS: −57%
post-menopausal women [2]; 5 mg QD, week 7
  Mean relative change (% from baseline) in weekly frequency of moderate to severe VMS: −57%
post-menopausal women [2]; 5 mg QD, week 8
  Mean relative change (% from baseline) in weekly frequency of moderate to severe VMS: −57%
post-menopausal women [2]; 5 mg QD, week 9
  Mean relative change (% from baseline) in weekly frequency of moderate to severe VMS: −59%
post-menopausal women [2]; 5 mg QD, week 10
  Mean relative change (% from baseline) in weekly frequency of moderate to severe VMS: −60%
post-menopausal women [2]; 5 mg QD, week 11
  Mean relative change (% from baseline) in weekly frequency of moderate to severe VMS: −63%
post-menopausal women [2]; 5 mg QD, week 12
  Mean relative change (% from baseline) in weekly frequency of moderate to severe VMS: −62%
post-menopausal women [2]; 10 mg QD, week 1
  Mean relative change (% from baseline) in weekly frequency of moderate to severe VMS: −21%
post-menopausal women [2]; 10 mg QD, week 2
  Mean relative change (% from baseline) in weekly frequency of moderate to severe VMS: −37%
post-menopausal women [2]; 10 mg QD, week 3
  Mean relative change (% from baseline) in weekly frequency of moderate to severe VMS: −48%
post-menopausal women [2]; 10 mg QD, week 4
  Mean relative change (% from baseline) in weekly frequency of moderate to severe VMS: −55%
post-menopausal women [2]; 10 mg QD, week 5
  Mean relative change (% from baseline) in weekly frequency of moderate to severe VMS: −60%
post-menopausal women [2]; 10 mg QD, week 6
  Mean relative change (% from baseline) in weekly frequency of moderate to severe VMS: −65%
post-menopausal women [2]; 10 mg QD, week 10
  Mean relative change (% from baseline) in weekly frequency of moderate to severe VMS: −70%
post-menopausal women [2]; 10 mg QD, week 11
  Mean relative change (% from baseline) in weekly frequency of moderate to severe VMS: −70%
post-menopausal women [2]; 10 mg QD, week 12
  Mean relative change (% from baseline) in weekly frequency of moderate to severe VMS: −72%
post-menopausal women [2]; 10 mg daily, week 0
  Weekly frequency of moderate to severe VMS, relative change (% from baseline), Mean: 0%
post-menopausal women [2]; 10 mg daily, week 1
  Weekly frequency of moderate to severe VMS, relative change (% from baseline), Mean: −21%
post-menopausal women [2]; 10 mg daily, week 2
  Weekly frequency of moderate to severe VMS, relative change (% from baseline), Mean: −37%
post-menopausal women [2]; 10 mg daily, week 3
  Weekly frequency of moderate to severe VMS, relative change (% from baseline), Mean: −48%
post-menopausal women [2]; 10 mg daily, week 4
  Weekly frequency of moderate to severe VMS, relative change (% from baseline), Mean: −55%
post-menopausal women [2]; 10 mg daily, week 5
  Weekly frequency of moderate to severe VMS, relative change (% from baseline), Mean: −60%
post-menopausal women [2]; 10 mg daily, week 6
  Weekly frequency of moderate to severe VMS, relative change (% from baseline), Mean: −65%
post-menopausal women [2]; 10 mg daily, week 7
  Weekly frequency of moderate to severe VMS, relative change (% from baseline), Mean: −66%
post-menopausal women [2]; 10 mg daily, week 8
  Weekly frequency of moderate to severe VMS, relative change (% from baseline), Mean: −68%
post-menopausal women [2]; 10 mg daily, week 9
  Weekly frequency of moderate to severe VMS, relative change (% from baseline), Mean: −69%
post-menopausal women [2]; 10 mg daily, week 10
  Weekly frequency of moderate to severe VMS, relative change (% from baseline), Mean: −70%
post-menopausal women [2]; 10 mg daily, week 11
  Weekly frequency of moderate to severe VMS, relative change (% from baseline), Mean: −70%
post-menopausal women [2]; 10 mg daily, week 12
  Weekly frequency of moderate to severe VMS, relative change (% from baseline), Mean: −72%
post-menopausal women [2]; 15 mg QD, week 2
  Mean relative change (% from baseline) in weekly frequency of moderate to severe VMS: −46%
post-menopausal women [2]; 15 mg QD, week 3
  Mean relative change (% from baseline) in weekly frequency of moderate to severe VMS: −57%
post-menopausal women [2]; 15 mg QD, week 4
  Mean relative change (% from baseline) in weekly frequency of moderate to severe VMS: −67%
post-menopausal women [2]; 15 mg QD, week 8
  Mean relative change (% from baseline) in weekly frequency of moderate to severe VMS: −79%
post-menopausal women [2]; 15 mg QD, week 10
  Mean relative change (% from baseline) in weekly frequency of moderate to severe VMS: −80%
post-menopausal women [2]; 15 mg QD, week 11
  Mean relative change (% from baseline) in weekly frequency of moderate to severe VMS: −82%
post-menopausal women [2]; 15 mg QD, week 12
  Mean relative change (% from baseline) in weekly frequency of moderate to severe VMS: −84%
post-menopausal women [2]; 15 mg daily, week 0
  Weekly frequency of moderate to severe VMS, relative change (% from baseline), Mean: 0%
post-menopausal women [2]; 15 mg daily, week 1
  Weekly frequency of moderate to severe VMS, relative change (% from baseline), Mean: −22%
post-menopausal women [2]; 15 mg daily, week 2
  Weekly frequency of moderate to severe VMS, relative change (% from baseline), Mean: −46%
post-menopausal women [2]; 15 mg daily, week 3
  Weekly frequency of moderate to severe VMS, relative change (% from baseline), Mean: −57%
post-menopausal women [2]; 15 mg daily, week 4
  Weekly frequency of moderate to severe VMS, relative change (% from baseline), Mean: −67%
post-menopausal women [2]; 15 mg daily, week 5
  Weekly frequency of moderate to severe VMS, relative change (% from baseline), Mean: −72%
post-menopausal women [2]; 15 mg daily, week 6
  Weekly frequency of moderate to severe VMS, relative change (% from baseline), Mean: −76%
post-menopausal women [2]; 15 mg daily, week 7
  Weekly frequency of moderate to severe VMS, relative change (% from baseline), Mean: −79%
post-menopausal women [2]; 15 mg daily, week 8
  Weekly frequency of moderate to severe VMS, relative change (% from baseline), Mean: −79%
post-menopausal women [2]; 15 mg daily, week 9
  Weekly frequency of moderate to severe VMS, relative change (% from baseline), Mean: −81%
post-menopausal women [2]; 15 mg daily, week 10
  Weekly frequency of moderate to severe VMS, relative change (% from baseline), Mean: −80%
post-menopausal women [2]; 15 mg daily, week 11
  Weekly frequency of moderate to severe VMS, relative change (% from baseline), Mean: −82%
post-menopausal women [2]; 15 mg daily, week 12
  Weekly frequency of moderate to severe VMS, relative change (% from baseline), Mean: −84%
post-menopausal women [2]; two lowest doses tested (2.5 mg per day and 5 mg per day)
  efficacy on vasomotor parameters: did not show efficacy
